Experiments:
[1] = target: T1, CYP2C8 (Homo sapiens, UniProt P10632); experiment: CYP2C8 inhibition in pooled human liver microsomes (paclitaxel 6α-hydroxylation); assay type: in vitro ADME
T1 construct: Pooled HLMs were purchased from BD Biosciences Discovery Labware; tissue BD Biosciences Discovery Labware; host or cells: pooled human liver microsomes
T1 sequence (P10632 1-490): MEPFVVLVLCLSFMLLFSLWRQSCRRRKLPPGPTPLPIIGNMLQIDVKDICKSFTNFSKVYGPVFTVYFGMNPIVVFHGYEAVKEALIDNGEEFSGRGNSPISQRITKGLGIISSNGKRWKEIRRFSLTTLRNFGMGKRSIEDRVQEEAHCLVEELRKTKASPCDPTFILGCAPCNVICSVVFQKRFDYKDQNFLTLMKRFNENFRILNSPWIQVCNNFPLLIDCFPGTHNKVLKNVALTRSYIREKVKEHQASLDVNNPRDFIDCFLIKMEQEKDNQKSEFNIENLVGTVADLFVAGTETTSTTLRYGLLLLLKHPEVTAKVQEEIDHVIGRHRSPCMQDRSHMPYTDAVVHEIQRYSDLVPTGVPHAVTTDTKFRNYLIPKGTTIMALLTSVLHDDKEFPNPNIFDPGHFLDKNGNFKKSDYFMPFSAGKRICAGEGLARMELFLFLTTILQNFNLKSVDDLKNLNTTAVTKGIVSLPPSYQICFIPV
Procedure: (§1) In this study, lysionotin was incubated with eight CYP isoforms (i.e., 1A2, 3A4, 2A6, 2E1, 2D6, 2C9, 2C19 and 2C8) in pooled human liver microsomes to investigate the interaction between lysionotin and CYPs, which can provide direct evidence for the effect of lysionotin on the activity of CYPs. In vitro, phenacetin (CYP1A2), testosterone (CYP3A4), coumarin (CYP2A6), chlorzoxazone (CYP2E1), dextromethorphan (CYP2D6), diclofenac (CYP2C9), S-mephenytoin (CYP2C19) and paclitaxel (CYP2C8) were used as probe substrates to determine the effects of lysionotin on eight CYP enzymes. In addition, enzyme kinetic studies were conducted to determine the inhibition model of lysionotin on CYP enzymes.
(§2) All incubations were performed in triplicate, and the mean values were utilised. The typical incubation systems contained 100 mM potassium phosphate buffer (pH 7.4), NADPH generating system (1 mM NADP^+, 10 mM glucose-6-phosphate, 1 U/mL of glucose-6-phosphate dehydrogenase, and 4 mM MgCl2), the appropriate concentration of HLMs, a corresponding probe substrate and lysionotin (or positive inhibitor for different probe reactions) in a final volume of 200 μL.
(§3) The concentration of lysionotin was 100 μM, and the positive inhibitor concentrations were as follows: 10 μM furafylline for CYP1A2, 1 μM ketoconazole for CYP3A4, 10 μM tranylcypromine for CYP2A6, 50 μM clomethiazole for CYP2E1, 10 μM quinidine for CYP2D6, 10 μM sulfaphenazole for CYP2C9, 50 μM tranylcypromine for CYP2C19, 5 μM montelukast for CYP2C8. Probe substrates, positive inhibitors (except for dextromethorphan and quinidine, which were dissolved in water), and lysionotin were dissolved in methanol, with a final concentration of 1% (v/v), and 1% neat methanol was added to the incubations without inhibitor. There was a 3 min preincubation period (at 37 °C) before the reaction was initiated by adding an NADPH-generating system. The reaction was terminated by adding a 100 μL acetonitrile (10% trichloroacetic acid for CYP2A6) internal standard mix, and the solution was placed on ice. The mixture was centrifuged at 12,000 rpm for 10 min, and an aliquot (50 μL) of supernatant was transferred for HPLC analysis. The instrument used in this study was Agilent 1260 series instrument with DAD and FLD detector, and the quantitative assay for the corresponding metabolites was performed as previously reported and the detection conditions are summarised in Table 2 (He et al. [2015]; Lang et al. [2017]; Zhang et al. [2017]). […]
(§4) The enzyme kinetic parameters for the probe reaction were estimated from the best fit line, using least-squares linear regression of the inverse substrate concentration versus the inverse velocity (Lineweaver-Burk plots), and the mean values were used to calculate Vmax and Km. Inhibition data from the experiments that were conducted using multiple compound concentrations were represented by Dixon plots, and inhibition constant (Ki) values were calculated using non-linear regression according to the following equation: v=(VmaxS)/(Km(1+I/Ki+S)for competitive inhibition v=(VmaxS)/[(Km+S((1+I/Ki)] for non-competitive inhibition where I is the concentration of the compound, Ki is the inhibition constant, S is the concentration of the substrate, and Km is the substrate concentration at half the maximum velocity (Vmax) of the reaction. The mechanism of the inhibition was inspected using the Lineweaver-Burk plots and the enzyme inhibition models. […]

[2] = target: T2, CYP3A4 (Homo sapiens, UniProt P08684); experiment: Time-dependent inhibition study of CYP3A4 in HLMs; assay type: in vitro ADME
T2 construct: Pooled HLMs were purchased from BD Biosciences Discovery Labware; tissue BD Biosciences Discovery Labware; host or cells: pooled human liver microsomes
T2 sequence (P08684 whole entry): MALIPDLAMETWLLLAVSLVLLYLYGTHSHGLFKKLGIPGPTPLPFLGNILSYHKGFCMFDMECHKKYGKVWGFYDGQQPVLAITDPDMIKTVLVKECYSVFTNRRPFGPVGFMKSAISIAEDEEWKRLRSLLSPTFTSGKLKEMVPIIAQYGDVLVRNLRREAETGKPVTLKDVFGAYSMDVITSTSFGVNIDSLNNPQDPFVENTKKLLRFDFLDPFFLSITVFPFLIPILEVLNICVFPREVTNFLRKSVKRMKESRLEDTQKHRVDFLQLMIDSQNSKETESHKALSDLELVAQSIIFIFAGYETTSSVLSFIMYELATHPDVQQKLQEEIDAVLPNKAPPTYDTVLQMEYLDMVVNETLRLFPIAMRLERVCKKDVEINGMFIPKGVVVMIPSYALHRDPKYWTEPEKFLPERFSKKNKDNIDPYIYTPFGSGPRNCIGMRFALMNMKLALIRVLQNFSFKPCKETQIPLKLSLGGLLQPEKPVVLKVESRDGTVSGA
Procedure: To determine whether lysionotin could inhibit the activity of CYP3A4, 2C19, and 2C8 in a time-dependent manner, lysionotin (20 μM) was pre-incubated with HLMs (1 mg/mL) in the presence of an NADPH-generating system for 30 min at 37 °C. After incubation, an aliquot (20 μL) was transferred to another incubation tube (final volume 200 μL) containing an NADPH-generating system and probe substrates whose final concentrations were approximate to Km. Then, further incubations were performed to measure the residual activity. After being incubated for 0, 5, 10, 15, and 30 min, the reactions were terminated by adding a 100 μL acetonitrile internal standard mix and then placed on ice; the corresponding metabolites were determined by HPLC.
To determine the KI and Kinact values for the inactivation of CYP3A4, the incubations were conducted using higher probe substrate concentrations (approximately 4-fold Km values) and various concentrations of lysionotin (0–50 μM) after different preincubation times (0–30 min), with a two-step incubation scheme, as described above. The value of KI and Kinact was calculated with the equation 1/Kobs = KI/Kinact*1/[I] + 1/Kinact. Where Kobs is the pseudo-first-order rate constant of inactivation at inactivated concentration [I], Kinact is the maximum inactivation rate (a theoretical value that cannot be experimentally observed), and KI is the inactivated concentration when the rate of inactivation reaches half of Kinact.

[3] = target: T3, CYP2C9 (Homo sapiens, UniProt P11712); experiment: CYP2C9 inhibition in pooled human liver microsomes (diclofenac 4′-hydroxylation); assay type: in vitro ADME; conditions: 100 μM lysionotin, pooled HLMs, p > 0.05
T3 construct: Pooled HLMs were purchased from BD Biosciences Discovery Labware; tissue BD Biosciences Discovery Labware; host or cells: pooled human liver microsomes
T3 sequence (P11712 whole entry): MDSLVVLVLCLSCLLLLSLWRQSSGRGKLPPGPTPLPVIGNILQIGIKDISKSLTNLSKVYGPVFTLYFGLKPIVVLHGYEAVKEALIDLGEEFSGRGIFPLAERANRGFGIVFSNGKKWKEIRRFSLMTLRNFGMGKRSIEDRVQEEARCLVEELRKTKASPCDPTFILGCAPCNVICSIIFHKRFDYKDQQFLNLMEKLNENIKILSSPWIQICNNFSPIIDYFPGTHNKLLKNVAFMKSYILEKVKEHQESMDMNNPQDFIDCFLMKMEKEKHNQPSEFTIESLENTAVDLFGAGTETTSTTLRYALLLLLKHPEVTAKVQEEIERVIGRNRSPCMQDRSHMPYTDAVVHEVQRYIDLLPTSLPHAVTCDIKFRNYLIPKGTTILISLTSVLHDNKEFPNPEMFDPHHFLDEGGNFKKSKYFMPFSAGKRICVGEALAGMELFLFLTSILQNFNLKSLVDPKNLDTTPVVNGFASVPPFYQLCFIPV
Procedure: In this study, lysionotin was incubated with eight CYP isoforms (i.e., 1A2, 3A4, 2A6, 2E1, 2D6, 2C9, 2C19 and 2C8) in pooled human liver microsomes to investigate the interaction between lysionotin and CYPs, which can provide direct evidence for the effect of lysionotin on the activity of CYPs. In vitro, phenacetin (CYP1A2), testosterone (CYP3A4), coumarin (CYP2A6), chlorzoxazone (CYP2E1), dextromethorphan (CYP2D6), diclofenac (CYP2C9), S-mephenytoin (CYP2C19) and paclitaxel (CYP2C8) were used as probe substrates to determine the effects of lysionotin on eight CYP enzymes. In addition, enzyme kinetic studies were conducted to determine the inhibition model of lysionotin on CYP enzymes. […]
The concentration of lysionotin was 100 μM, and the positive inhibitor concentrations were as follows: 10 μM furafylline for CYP1A2, 1 μM ketoconazole for CYP3A4, 10 μM tranylcypromine for CYP2A6, 50 μM clomethiazole for CYP2E1, 10 μM quinidine for CYP2D6, 10 μM sulfaphenazole for CYP2C9, 50 μM tranylcypromine for CYP2C19, 5 μM montelukast for CYP2C8. […] The instrument used in this study was Agilent 1260 series instrument with DAD and FLD detector, and the quantitative assay for the corresponding metabolites was performed as previously reported and the detection conditions are summarised in Table 2 (He et al. [2015]; Lang et al. [2017]; Zhang et al. [2017]). […]

[4] = target: T4, CYP2C19 (Homo sapiens, UniProt P33261); experiment: CYP2C19 inhibition in pooled human liver microsomes (S-mephenytoin 4-hydroxylation); assay type: in vitro ADME; conditions: for inhibition model of CYP2C19: Lineweaver-Burk plots
T4 construct: Pooled HLMs were purchased from BD Biosciences Discovery Labware; tissue BD Biosciences Discovery Labware; host or cells: pooled human liver microsomes
T4 sequence (P33261 whole entry): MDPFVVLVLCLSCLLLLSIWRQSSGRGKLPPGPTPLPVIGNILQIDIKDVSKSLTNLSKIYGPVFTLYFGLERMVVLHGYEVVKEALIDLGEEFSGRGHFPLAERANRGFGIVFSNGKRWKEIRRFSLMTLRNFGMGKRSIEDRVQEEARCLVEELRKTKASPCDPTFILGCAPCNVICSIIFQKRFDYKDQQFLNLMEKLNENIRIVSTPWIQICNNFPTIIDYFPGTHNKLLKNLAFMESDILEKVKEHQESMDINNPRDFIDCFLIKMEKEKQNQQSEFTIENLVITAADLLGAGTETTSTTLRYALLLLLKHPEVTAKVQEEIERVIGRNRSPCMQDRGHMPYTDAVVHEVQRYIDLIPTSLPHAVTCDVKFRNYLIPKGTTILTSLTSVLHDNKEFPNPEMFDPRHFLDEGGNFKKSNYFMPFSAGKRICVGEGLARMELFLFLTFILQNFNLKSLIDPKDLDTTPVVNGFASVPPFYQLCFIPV
Procedure: as §1, §2, §3, §4

[5] = design: method as in Liu et al. [2013]; conditions: oral administration of 50 mg/kg, ref Liu et al. [2013]; cited from earlier work

Question: Which Ki ([1]; competitive model, paclitaxel 5–20 μM, lysionotin 0–50 μM, pooled HLM) does the source give for `COc1ccc(-c2cc(=O)c3c(O)c(OC)c(O)c(OC)c3o2)cc1` [lysionotin, Lysionotin] here?
Answer: 14.5 µM

Question: What about the IC50 ([1]; pooled HLMs, paclitaxel 6α-hydroxylation) of the same molecule?
Answer: 30 µM

Question: What about the “effect of incubation time on the inhibition of CYP3A4” value ([2]; 20 μM lysionotin, 0–30 min) of the same molecule?
Answer: time-dependent

Question: And the “CYP3A4 inactivated every minute” value ([2]; during incubation with lysionotin)?
Answer: about 4.8%

Question: And the KI (inactivation) ([2]; human, human liver microsomes, probe testosterone (approximately 4-fold Km), lysionotin 0–50 μM, preincubation 0–30 min, NADPH, printed as KI/Kinact)?
Answer: 6.62 µM

Question: What about the Kinact for inactivation of CYP3A4 ([2]; lysionotin 0–50 μM, preincubation 0–30 min, NADPH, printed as KI/Kinact) of the same molecule?
Answer: 0.048 min⁻¹

Question: And the “effect on the activity of CYP2C9” value [3]?
Answer: not affected

Question: What about the “activity of CYP2C19 decreased by” value ([4]; 100 μM lysionotin, pooled HLMs) of the same molecule?
Answer: 74.86%

Question: What about the “inhibition model of CYP2C19” value [4] of the same molecule?
Answer: competitively

Question: What about the “inhibition model of CYP2C19” value ([4]; listed as Lysionotin) of the same molecule?
Answer: competitive

Question: What about the Ki ([4]; competitive model, mephenytoin 50–200 μM, lysionotin 0–50 μM, pooled HLM) of the same molecule?
Answer: 12.4 µM

Question: What about the IC50 ([4]; pooled HLMs, S-mephenytoin 4-hydroxylation) of the same molecule?
Answer: 25 µM

Question: What about the “Cmax in rat plasma” value [5] of the same molecule?
Answer: 58.4 ± 10.3 ng/mL

Source: PMC7470033, “In vitro inhibitory effect of lysionotin on the activity of cytochrome P450 enzymes” (Pharmaceutical Biology, 2020)
